Read-outs that look alike come from different tables or passages of the source.
Experiments:
[1] = biological target: SMARCA4 (Homo sapiens, UniProt P51532); assay: HiBiT assay for protein degradation, Hela SMARCA4-HiBiT cells (A series); type: cell-based; design: fuse HiBiT to the carboxy terminus of SMARCA2 (Promega CS302365) or SMARCA4 (Promega CS3023225); host or cells: HeLa (CRISPR/Cas9 HiBiT knock-in); conditions: for DC50: read-out: SMARC A4 Hela HiBit DC50
Procedure, shortened: (§1)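 HeLa cells engineered by CRISPR/Cas9 to carry a HiBiT tag fused to the C-terminus of SMARCA4 (Promega CS3023225) were grown in DMEM supplemented with FBS and penicillin-streptomycin. After compound exposure, remaining SMARCA4 protein was quantified using the Nano-Glo® HiBiT Lytic Detection Assay (Promega N3050), and curves were fitted in GraphPad Prism.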

[2] = biological target: SMARCA2 (Homo sapiens, UniProt P51531); assay: HiBiT assay for protein degradation, Hela SMARCA2-HiBiT cells (A series); type: cell-based; design: Hela cells were genetically modified via CRISPR/Cas9 to fuse HiBiT to the carboxy terminus of SMARCA2; host or cells: HeLa (CRISPR/Cas9 HiBiT knock-in); conditions: for DC50: read-out: SMARC A2 Hela HiBit DC50; for Dmax: read-out: SMARC A2 Hela HiBit Dmax (%);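 on SMARC A2 Hela HiBit Dmax (%): 24 h compound treatment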
Chain of SMARCA2 (P51531 whole entry): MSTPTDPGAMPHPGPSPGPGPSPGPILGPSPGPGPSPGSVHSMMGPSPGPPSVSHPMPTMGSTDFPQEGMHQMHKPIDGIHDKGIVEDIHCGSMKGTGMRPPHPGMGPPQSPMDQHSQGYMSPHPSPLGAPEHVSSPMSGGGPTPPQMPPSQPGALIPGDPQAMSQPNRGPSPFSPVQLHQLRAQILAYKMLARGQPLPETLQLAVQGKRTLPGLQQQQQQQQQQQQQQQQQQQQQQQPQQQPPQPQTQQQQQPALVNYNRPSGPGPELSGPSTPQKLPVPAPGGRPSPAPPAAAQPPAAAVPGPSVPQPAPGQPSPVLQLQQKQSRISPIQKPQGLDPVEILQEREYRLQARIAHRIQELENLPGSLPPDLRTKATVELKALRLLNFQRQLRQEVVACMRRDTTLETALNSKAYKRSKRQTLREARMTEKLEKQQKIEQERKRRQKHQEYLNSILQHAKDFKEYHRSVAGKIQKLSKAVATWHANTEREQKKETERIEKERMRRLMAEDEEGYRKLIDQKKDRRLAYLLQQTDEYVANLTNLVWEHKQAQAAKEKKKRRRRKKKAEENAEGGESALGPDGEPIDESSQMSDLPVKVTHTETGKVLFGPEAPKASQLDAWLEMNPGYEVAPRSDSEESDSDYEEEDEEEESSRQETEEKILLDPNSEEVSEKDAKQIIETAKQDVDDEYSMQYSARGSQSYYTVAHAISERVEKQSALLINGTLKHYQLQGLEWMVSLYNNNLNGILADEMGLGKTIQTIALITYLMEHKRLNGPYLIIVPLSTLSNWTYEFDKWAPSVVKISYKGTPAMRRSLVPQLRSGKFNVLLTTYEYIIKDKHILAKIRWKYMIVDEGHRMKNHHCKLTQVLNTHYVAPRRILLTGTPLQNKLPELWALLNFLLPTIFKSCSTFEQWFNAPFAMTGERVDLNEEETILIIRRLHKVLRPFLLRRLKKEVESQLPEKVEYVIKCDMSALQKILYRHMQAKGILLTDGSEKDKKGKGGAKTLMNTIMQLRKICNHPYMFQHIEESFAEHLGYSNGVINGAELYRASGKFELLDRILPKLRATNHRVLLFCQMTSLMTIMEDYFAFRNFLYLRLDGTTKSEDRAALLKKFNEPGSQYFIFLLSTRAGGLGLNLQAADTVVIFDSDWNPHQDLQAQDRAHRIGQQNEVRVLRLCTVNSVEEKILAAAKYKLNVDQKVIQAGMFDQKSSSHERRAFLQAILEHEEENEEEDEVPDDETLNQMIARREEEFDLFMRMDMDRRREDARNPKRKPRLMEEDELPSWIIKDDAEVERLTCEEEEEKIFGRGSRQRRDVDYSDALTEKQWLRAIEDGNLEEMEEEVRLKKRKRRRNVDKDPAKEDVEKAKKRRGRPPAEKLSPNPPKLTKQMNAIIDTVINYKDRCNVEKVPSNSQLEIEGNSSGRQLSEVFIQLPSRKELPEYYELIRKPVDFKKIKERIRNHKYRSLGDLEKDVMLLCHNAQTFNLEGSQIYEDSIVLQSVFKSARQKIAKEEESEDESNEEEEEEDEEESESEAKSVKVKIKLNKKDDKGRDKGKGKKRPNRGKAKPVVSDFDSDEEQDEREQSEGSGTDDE
Procedure, shortened: as §1, with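 “SMARCA2” for “SMARCA4”, “CS302365)” for “CS3023225)”, “treatment,” for “compound exposure,”, “with” for “using”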

[3] = Hela SMARCA4-HiBiT cells, 24 hours treatment
[4] = Hela SMARCA4-HiBiT cells, 24 hours treatment, read-out: SMARC A4 Hela HiBit Dmax
[5] = Hela SMARCA2-HiBiT cells, 24 hours treatment
[6] = HeLa, read-out: SMARC A4 Hela HiBit Dmax(%)
[7] = Hela SMARCA4-HiBiT cells, 24 hours treatment, read-out: SMARC A4 Hela HiBit Dmax(%)

Chain of SMARCA4 (P51532 whole entry, the tested form may be a part): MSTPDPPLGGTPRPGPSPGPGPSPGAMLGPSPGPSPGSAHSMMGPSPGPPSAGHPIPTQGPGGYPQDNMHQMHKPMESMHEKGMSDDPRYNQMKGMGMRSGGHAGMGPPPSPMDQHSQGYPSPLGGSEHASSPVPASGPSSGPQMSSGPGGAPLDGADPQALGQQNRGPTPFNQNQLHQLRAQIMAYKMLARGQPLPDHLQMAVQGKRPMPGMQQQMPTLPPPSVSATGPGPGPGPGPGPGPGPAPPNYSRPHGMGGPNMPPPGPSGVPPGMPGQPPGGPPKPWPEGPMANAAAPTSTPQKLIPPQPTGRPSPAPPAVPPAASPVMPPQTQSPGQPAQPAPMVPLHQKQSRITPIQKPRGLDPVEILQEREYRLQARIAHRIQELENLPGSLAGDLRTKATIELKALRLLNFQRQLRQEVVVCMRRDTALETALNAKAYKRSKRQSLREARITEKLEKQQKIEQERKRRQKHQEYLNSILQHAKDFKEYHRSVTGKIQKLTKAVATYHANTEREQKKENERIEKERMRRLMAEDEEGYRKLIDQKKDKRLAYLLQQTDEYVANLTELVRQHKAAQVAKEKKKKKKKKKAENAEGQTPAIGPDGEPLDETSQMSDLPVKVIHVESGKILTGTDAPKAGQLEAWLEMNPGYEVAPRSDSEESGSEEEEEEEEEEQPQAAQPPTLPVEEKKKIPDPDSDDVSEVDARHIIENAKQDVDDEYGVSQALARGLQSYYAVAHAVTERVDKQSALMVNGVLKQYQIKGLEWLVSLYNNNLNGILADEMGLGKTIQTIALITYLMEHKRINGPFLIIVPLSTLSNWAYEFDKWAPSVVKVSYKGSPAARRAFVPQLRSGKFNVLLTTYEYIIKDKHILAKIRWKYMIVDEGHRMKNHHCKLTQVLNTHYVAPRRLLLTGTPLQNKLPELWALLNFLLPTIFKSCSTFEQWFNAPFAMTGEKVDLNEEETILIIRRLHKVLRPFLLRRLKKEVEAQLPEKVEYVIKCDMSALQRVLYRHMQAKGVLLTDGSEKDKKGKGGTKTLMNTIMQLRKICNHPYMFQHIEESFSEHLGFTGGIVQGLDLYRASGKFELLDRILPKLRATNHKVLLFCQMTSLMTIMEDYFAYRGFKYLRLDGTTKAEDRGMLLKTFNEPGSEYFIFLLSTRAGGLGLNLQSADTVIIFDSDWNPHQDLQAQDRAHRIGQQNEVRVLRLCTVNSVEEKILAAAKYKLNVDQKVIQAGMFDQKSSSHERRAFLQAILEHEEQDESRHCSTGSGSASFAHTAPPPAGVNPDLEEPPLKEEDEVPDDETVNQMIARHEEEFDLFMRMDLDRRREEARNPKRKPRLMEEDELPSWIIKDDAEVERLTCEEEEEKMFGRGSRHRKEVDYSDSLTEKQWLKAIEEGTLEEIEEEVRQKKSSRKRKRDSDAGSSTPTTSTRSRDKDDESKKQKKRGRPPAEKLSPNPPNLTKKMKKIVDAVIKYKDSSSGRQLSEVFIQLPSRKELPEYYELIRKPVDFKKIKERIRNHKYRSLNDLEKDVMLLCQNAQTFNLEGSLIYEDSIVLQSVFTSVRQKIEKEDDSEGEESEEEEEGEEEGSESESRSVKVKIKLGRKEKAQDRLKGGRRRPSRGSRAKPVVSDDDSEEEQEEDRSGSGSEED

Row | Structure (SMILES) | DC50 [1, 3] | Dmax [1, 4] | DC50 [2, 5] | Dmax [2, 5] | Dmax [1, 6] | Dmax ([2]; HeLa) | Dmax [1, 7]
1 | Cc1ncsc1-c1ccc([C@H](CC(=O)N(C)C)NC(=O)[C@@H]2C[C@@H](O)CN2C(=O)[C@@H](n2cc([C@H]3CC[C@H](CN4CCC(c5ccc6c(c5)-n5c(nc(=O)c7c(Cl)cccc75)C65CCCCC5)CC4)CC3)nn2)C(C)(C)C)cc1 [Compound A147, (2S,4R)-1-((S)-2-(4-((1r,4S)-4-((4-(4′-chloro-5′-oxo-5′H-spiro[cyclohexane-1,7′-indolo[1,2-a]quinazolin]-10′-yl)piperidin-1-yl)methyl)cyclohexyl)-1H-1,2,3-triazol-1-yl)-3,3-dimethylbutanoyl)-N—((S)-3-(dimethylamino)-1-(4-(4-methylthiazol-5-yl)phenyl)-3-oxopropyl)-4-hydroxypyrrolidine-2-carboxamide] | > 1000 nM | 50 to 69% | < 10 nM | > 90% | – | – | –
2 | CC(C)(C)[C@@H](C(=O)N1C[C@H](O)C[C@H]1C(=O)N[C@@H](CN1CCOCC1)c1ccc(-c2cccnc2)cc1)n1cc([C@H]2CC[C@H](CN3CCC(c4ccc5c(c4)-n4c(nc(=O)c6c(Cl)cccc64)C54CCCCC4)CC3)CC2)nn1 [Compound A171, (2S,4R)-1-((S)-2-(4-((1r,4S)-4-((4-(4′-chloro-5′-oxo-5′H-spiro[cyclohexane-1,7′-indolo[1,2-a]quinazolin]-10′-yl)piperidin-1-yl)methyl)cyclohexyl)-1H-1,2,3-triazol-1-yl)-3,3-dimethylbutanoyl)-4-hydroxy-N—((R)-2-morpholino-1-(4-(pyridin-3-yl)phenyl)ethyl)pyrrolidine-2-carboxamide] | 100 to 1000 nM | 50 to 69% | < 10 nM | > 90% | – | – | –
3 | Cc1ncsc1-c1ccc([C@H](C)NC(=O)[C@@H]2C[C@@H](O)CN2C(=O)[C@@H](NC(=O)CCN2CCC(c3ccc4c(c3)C3(CCCCC3)c3nc(=O)c5c(Cl)cccc5n3-4)CC2)C(C)(C)C)cc1 [Compound A6, (2S,4R)-1-((S)-2-(3-(4-(4′-chloro-5′-oxo-5′H-spiro[cyclohexane-1,7′-indolo[1,2-a]quinazolin]-9′-yl)piperidin-1-yl)propanamido)-3,3-dimethylbutanoyl)-4-hydroxy-N—((S)-1-(4-(4-methylthiazol-5-yl)phenyl)ethyl) pyrrolidine-2-carboxamide] | 501 to 1000 nM | – | 100 to 500 nM | – | 50 to 69% | 70 to 90% | –
4 | Cc1ncsc1-c1ccc([C@H](CN2CCC(C(F)(F)F)CC2)NC(=O)[C@@H]2C[C@@H](O)CN2C(=O)[C@@H](n2cc([C@H]3CC[C@H](CN4CCC(c5ccc6c(c5)-n5c(nc(=O)c7c(Cl)cccc75)C65CCCCC5)CC4)CC3)nn2)C(C)(C)C)cc1 [Compound A83, (2S,4R)-1-((S)-2-(4-((1r,4S)-4-((4-(4′-chloro-5′-oxo-5′H-spiro[cyclohexane-1,7′-indolo[1,2-a]quinazolin]-10′-yl)piperidin-1-yl)methyl)cyclohexyl)-1H-1,2,3-triazol-1-yl)-3,3-dimethylbutanoyl)-4-hydroxy-N-(®-1-(4-(4-methylthiazol-5-yl)phenyl)-2-(4-(trifluoromethyl)piperidin-1-yl)ethyl)pyrrolidine-2-carboxamide] | > 1000 nM | 50 to 69% | < 10 nM | > 90% | – | – | –
5 | Cc1ncsc1-c1ccc([C@H](CCCCCN2CCC(c3ccc4c(c3)C3(CCCCC3)c3nc(=O)c5c(Br)cccc5n3-4)CC2)NC(=O)[C@@H]2C[C@@H](O)CN2C(=O)[C@@H](NC(=O)C2(N(C)C)CC2)C(C)(C)C)cc1 [Compound A17, (2S,4R)—N—((S)-6-(4-(4′-bromo-5′-oxo-5′H-spiro[cyclohexane-1,7′-indolo[1,2-a]quinazolin]-9′-yl)piperidin-1-yl)-1-(4-(4-methylthiazol-5-yl)phenyl)hexyl)-1-((S)-2-(1-(dimethylamino)cyclopropane-1-carboxamido)-3,3-dimethylbutanoyl)-4-hydroxypyrrolidine-2-carboxamide] | < 100 nM | – | < 100 nM | 70 to 90% | – | – | > 90%
6 | COCCOCCOC[C@H](NC(=O)[C@@H]1C[C@@H](O)CN1C(=O)[C@@H](n1cc([C@H]2CC[C@H](CN3CCC(c4ccc5c(c4)-n4c(nc(=O)c6c(Cl)cccc64)C54CCCCC4)CC3)CC2)nn1)C(C)(C)C)c1ccc(-c2scnc2C)cc1 [Compound A87, (2S,4R)-1-((S)-2-(4-((1r,4S)-4-((4-(4′-chloro-5′-oxo-5′H-spiro[cyclohexane-1,7′-indolo[1,2-a]quinazolin]-10′-yl)piperidin-1-yl)methyl)cyclohexyl)-1H-1,2,3-triazol-1-yl)-3,3-dimethylbutanoyl)-4-hydroxy-N-(®-2-(2-(2-methoxyethoxy)ethoxy)-1-(4-(4-methylthiazol-5-yl)phenyl)ethyl)pyrrolidine-2-carboxamide] | > 1000 nM | 50 to 69% | < 10 nM | > 90% | – | – | –
7 | Cc1ncsc1-c1ccc([C@H](C)NC(=O)[C@@H]2C[C@@H](O)CN2C(=O)[C@@H](n2cc(CCCCCN3CCC(c4ccc5c(c4)C4(CCCCC4)c4nc(=O)c6c(Br)cccc6n4-5)CC3)nn2)C(C)(C)C)cc1 [Compound A57, (2S,4R)-1-((S)-2-(4-(5-(4-(4′-bromo-5′-oxo-5′H-spiro[cyclohexane-1,7′-indolo[1,2-a]quinazolin]-9′-yl)piperidin-1-yl)pentyl)-1H-1,2,3-triazol-1-yl)-3,3-dimethylbutanoyl)-4-hydroxy-N—((S)-1-(4-(4-methylthiazol-5-yl)phenyl)ethyl)pyrrolidine-2-carboxamide] | < 100 nM | – | < 100 nM | > 90% | – | – | > 90%
8 | Cc1ncsc1-c1ccc([C@H](CN2CCOCC2)NC(=O)[C@@H]2C[C@@H](O)CN2C(=O)[C@@H](n2cc([C@H]3CC[C@H](CN4CCC(c5ccc6c(c5)-n5c(nc(=O)c7c(Cl)cccc75)C65CCCCC5)CC4)CC3)nn2)C(C)(C)O)cc1 [Compound A158, (2S,4R)-1-((S)-2-(4-((1r,4S)-4-((4-(4′-chloro-5′-oxo-5′H-spiro[cyclohexane-1,7′-indolo[1,2-a]quinazolin]-10′-yl)piperidin-1-yl)methyl)cyclohexyl)-1H-1,2,3-triazol-1-yl)-3-hydroxy-3-methylbutanoyl)-4-hydroxy-N-((R)-1-(4-(4-methylthiazol-5-yl)phenyl)-2-morpholinoethyl)pyrrolidine-2-carboxamide] | > 1000 nM | 50 to 69% | < 10 nM | > 90% | – | – | –
9 | Cc1ncsc1-c1ccc([C@H](CCCCCN2CCC(c3ccc4c(c3)C3(CCCCC3)c3nc(=O)c5c(Br)cccc5n3-4)CC2)NC(=O)[C@@H]2C[C@@H](O)CN2C(=O)[C@@H](NC(=O)C2(F)CC2)C(C)(C)C)cc1 [Compound A4, (2S,4R)—N—((S)-6-(4-(4′-bromo-5′-oxo-5′H-spiro[cyclohexane-1,7′-indolo[1,2-a]quinazolin]-9′-yl)piperidin-1-yl)-1-(4-(4-methylthiazol-5-yl)phenyl)hexyl)-1-((S)-2-(1-fluorocyclopropane-1-carboxamido)-3,3-dimethylbutanoyl)-4-hydroxypyrrolidine-2-carboxamide] | < 100 nM | – | < 100 nM | – | > 90% | > 90% | –
10 | Cc1ncsc1-c1ccc([C@H](C)NC(=O)[C@@H]2C[C@@H](O)CN2C(=O)[C@@H](NC(=O)CN2CCC(c3ccc4c(c3)C3(CCCCC3)c3nc(=O)c5c(Cl)cccc5n3-4)CC2)C(C)(C)C)cc1 [Compound A5, (2S,4R)-1-((S)-2-(2-(4-(4′-chloro-5′-oxo-5′H-spiro[cyclohexane-1,7′-indolo[1,2-a]quinazolin]-9′-yl)piperidin-1-yl)acetamido)-3,3-dimethylbutanoyl)-4-hydroxy-N—((S)-1-(4-(4-methylthiazol-5-yl)phenyl)ethyl) pyrrolidine-2-carboxamide] | < 100 nM | – | < 100 nM | – | > 90% | > 90% | –
11 | Cc1ncsc1-c1ccc([C@H](C)NC(=O)[C@@H]2C[C@@H](O)CN2C(=O)[C@H](C2CCN(C(=O)CCCN3CCC(c4ccc5c(c4)-n4c(nc(=O)c6c(Cl)cccc64)C54CCCCC4)CC3)CC2)n2cc(C3CC3)nn2)cc1 [Compound A106, (2S,4R)-1-((S)-2-(1-(4-(4-(4′-chloro-5′-oxo-5′H-spiro[cyclohexane-1,7′-indolo[1,2-a]quinazolin]-10′-yl)piperidin-1-yl)butanoyl)piperidin-4-yl)-2-(4-cyclopropyl-1H-1,2,3-triazol-1-yl)acetyl)-4-hydroxy-N—((S)-1-(4-(4-methylthiazol-5-yl)phenyl)ethyl)pyrrolidine-2-carboxamide] | 100 to 1000 nM | < 50% | 100 to 1000 nM | 70 to 90% | – | – | –

From patent publication US20260092071A1, “COMPOUNDS AND COMPOSITIONS AS SMARCA2/4 DEGRADERS AND USES THEREOF” (REGENTS OF THE UNIVERSITY OF MICHIGAN, priority 2022, published 2026)
